Measured values as given in ChEMBL document CHEMBL4673219, “Novel 5,6-disubstituted pyrrolo[2,3-d]pyrimidine derivatives as broad spectrum antiproliferative agents: Synthesis, cell based assays, kinase profile and molecular docking study” (Bioorg Med Chem, 2018).
Several values for one entry are separate records, joined by “and”; a condition that tells them apart may be missing. Equal entries are not always repeated.

Experiments:
[1] = system: Malme-3M; assay: Growth inhibition of human Malme-3M cells assessed as growth percentage at 100 uM incubated for 48 hrs by sulforhodamine B assay relative to control; format: functional; settings: read-out: Activity
[2] = system: UACC-62; assay: Growth inhibition of human UACC-62 cells incubated for 48 hrs by sulforhodamine B assay; format: functional
[3] = system: SN12C; assay: Growth inhibition of human SN12C cells incubated for 48 hrs by sulforhodamine B assay; format: functional
[4] = system: UO-31; assay: Growth inhibition of human UO-31 cells assessed as growth percentage at 1 uM incubated for 48 hrs by sulforhodamine B assay relative to control; format: functional; settings: read-out: Activity
[5] = system: Hs-578T; assay: Growth inhibition of human Hs-578T cells assessed as growth percentage at 1 uM incubated for 48 hrs by sulforhodamine B assay relative to control; format: functional; settings: read-out: Activity
[6] = biological target: Fibroblast growth factor receptor 1 (Homo sapiens) (UniProt P11362); assay: Inhibition of human FGFR1 at 10 uM using myelin basic protein as substrate incubated for 40 mins in presence of [gamma33P]ATP by scintillation counting method relative to control
Fibroblast growth factor receptor 1 (Homo sapiens), sequence (P11362 22-822 limits assumed): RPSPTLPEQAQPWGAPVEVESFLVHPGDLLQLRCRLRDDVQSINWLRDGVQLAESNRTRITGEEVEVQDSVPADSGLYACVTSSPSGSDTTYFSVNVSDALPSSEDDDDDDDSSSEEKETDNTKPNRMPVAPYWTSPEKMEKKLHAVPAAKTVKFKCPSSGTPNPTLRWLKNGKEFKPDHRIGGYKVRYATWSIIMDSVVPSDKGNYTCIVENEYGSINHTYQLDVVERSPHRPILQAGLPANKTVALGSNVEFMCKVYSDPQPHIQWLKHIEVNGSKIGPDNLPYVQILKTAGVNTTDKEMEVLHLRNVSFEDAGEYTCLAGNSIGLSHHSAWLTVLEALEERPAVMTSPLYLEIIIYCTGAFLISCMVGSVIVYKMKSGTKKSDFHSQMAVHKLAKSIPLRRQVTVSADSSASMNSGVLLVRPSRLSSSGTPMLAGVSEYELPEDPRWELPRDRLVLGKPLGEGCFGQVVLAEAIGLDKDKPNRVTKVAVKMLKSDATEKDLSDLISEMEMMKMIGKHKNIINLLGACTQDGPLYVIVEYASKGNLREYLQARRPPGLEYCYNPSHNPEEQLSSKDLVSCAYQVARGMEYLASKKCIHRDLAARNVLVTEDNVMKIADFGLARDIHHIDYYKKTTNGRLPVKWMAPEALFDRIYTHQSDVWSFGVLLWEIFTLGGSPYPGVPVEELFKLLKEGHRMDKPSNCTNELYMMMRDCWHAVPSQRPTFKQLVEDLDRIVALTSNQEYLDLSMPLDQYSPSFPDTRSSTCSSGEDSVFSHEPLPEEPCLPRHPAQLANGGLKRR

[7] = system: SF-295; assay: Growth inhibition of human SF-295 cells assessed as growth percentage at 0.01 uM incubated for 48 hrs by sulforhodamine B assay relative to control; format: functional; settings: read-out: Activity
[8] = system: COLO 205; assay: Growth inhibition of human COLO 205 cells assessed as growth percentage at 0.1 uM incubated for 48 hrs by sulforhodamine B assay relative to control; format: functional; settings: read-out: Activity
[9] = system: MDA-MB-468; assay: Growth inhibition of human MDA-MB-468 cells incubated for 48 hrs by sulforhodamine B assay; format: functional
[10] = system: SF-268; assay: Growth inhibition of human SF-268 cells assessed as growth percentage at 100 uM incubated for 48 hrs by sulforhodamine B assay relative to control; format: functional; settings: read-out: Activity
[11] = system: NCI-H460; assay: Growth inhibition of human NCI-H460 cells assessed as growth percentage at 1 uM incubated for 48 hrs by sulforhodamine B assay relative to control; format: functional; settings: read-out: Activity
[12] = system: MDA-MB-435; assay: Growth inhibition of human MDA-MB-435 cells assessed as growth percentage at 1 uM incubated for 48 hrs by sulforhodamine B assay relative to control; format: functional; settings: read-out: Activity
[13] = system: Hs-578T; assay: Growth inhibition of human Hs-578T cells assessed as growth percentage at 100 uM incubated for 48 hrs by sulforhodamine B assay relative to control; format: functional; settings: read-out: Activity
[14] = system: HT-29; assay: Growth inhibition of human HT-29 cells assessed as growth percentage at 1 uM incubated for 48 hrs by sulforhodamine B assay relative to control; format: functional; settings: read-out: Activity
[15] = system: HCC 2998; assay: Growth inhibition of human HCC 2998 cells assessed as growth percentage at 100 uM incubated for 48 hrs by sulforhodamine B assay relative to control; format: functional; settings: read-out: Activity
[16] = system: PC-3; assay: Growth inhibition of human PC-3 cells incubated for 48 hrs by sulforhodamine B assay; format: functional; settings: for CC50: read-out: LC50 (the source's name)
[17] = system: MOLT-4; assay: Growth inhibition of human MOLT-4 cells assessed as growth percentage at 10 uM incubated for 48 hrs by sulforhodamine B assay relative to control; format: functional; settings: read-out: Activity
[18] = system: MCF7; assay: Antiproliferative activity against human MCF7 cells assessed as cell growth inhibition at 10 uM measured after 72 hrs by MTT assay relative to control; format: functional; settings: read-out: GI
[19] = system: NCI-H322M; assay: Growth inhibition of human NCI-H322M cells assessed as growth percentage at 0.1 uM incubated for 48 hrs by sulforhodamine B assay relative to control; format: functional; settings: read-out: Activity
[20] = system: BT-549; assay: Growth inhibition of human BT-549 cells assessed as growth percentage at 10 uM incubated for 48 hrs by sulforhodamine B assay relative to control; format: functional; settings: read-out: Activity
[21] = system: SW-620; assay: Growth inhibition of human SW-620 cells assessed as growth percentage at 0.1 uM incubated for 48 hrs by sulforhodamine B assay relative to control; format: functional; settings: read-out: Activity
[22] = system: SR; assay: Growth inhibition of human SR cells incubated for 48 hrs by sulforhodamine B assay; format: functional; settings: for CC50: read-out: LC50 (the source's name)
[23] = system: NCI-H226; assay: Growth inhibition of human NCI-H226 cells assessed as growth percentage at 100 uM incubated for 48 hrs by sulforhodamine B assay relative to control; format: functional; settings: read-out: Activity
[24] = system: 786-0; assay: Growth inhibition of human 786-0 cells assessed as growth percentage at 1 uM incubated for 48 hrs by sulforhodamine B assay relative to control; format: functional; settings: read-out: Activity
[25] = system: OVCAR-8; assay: Growth inhibition of human OVCAR-8 cells incubated for 48 hrs by sulforhodamine B assay; format: functional; settings: for CC50: read-out: LC50 (the source's name)
[26] = system: M14; assay: Growth inhibition of human M14 cells assessed as growth percentage at 100 uM incubated for 48 hrs by sulforhodamine B assay relative to control; format: functional; settings: read-out: Activity
[27] = system: PC-3; assay: Growth inhibition of human PC-3 cells assessed as growth percentage at 0.1 uM incubated for 48 hrs by sulforhodamine B assay relative to control; format: functional; settings: read-out: Activity
[28] = system: CAKI-1; assay: Growth inhibition of human CAKI-1 cells assessed as growth percentage at 100 uM incubated for 48 hrs by sulforhodamine B assay relative to control; format: functional; settings: read-out: Activity
[29] = system: T47D; assay: Growth inhibition of human T47D cells assessed as growth percent at 0.1 uM incubated for 48 hrs by sulforhodamine B assay relative to control; format: functional; settings: read-out: Activity
[30] = system: NCI-H522; assay: Growth inhibition of human NCI-H522 cells assessed as growth percentage at 0.1 uM incubated for 48 hrs by sulforhodamine B assay relative to control; format: functional; settings: read-out: Activity
[31] = system: MDA-MB-468; assay: Growth inhibition of human MDA-MB-468 cells assessed as growth percentage at 100 uM incubated for 48 hrs by sulforhodamine B assay relative to control; format: functional; settings: read-out: Activity
[32] = system: KM12; assay: Growth inhibition of human KM12 cells assessed as growth percentage at 100 uM incubated for 48 hrs by sulforhodamine B assay relative to control; format: functional; settings: read-out: Activity
[33] = system: HCC 2998; assay: Growth inhibition of human HCC 2998 cells assessed as growth percentage at 1 uM incubated for 48 hrs by sulforhodamine B assay relative to control; format: functional; settings: read-out: Activity
[34] = system: K562; assay: Growth inhibition of human K562 cells assessed as growth percentage at 10 uM incubated for 48 hrs by sulforhodamine B assay relative to control; format: functional; settings: read-out: Activity
[35] = system: MOLT-4; assay: Growth inhibition of human MOLT-4 cells assessed as growth percentage at 0.1 uM incubated for 48 hrs by sulforhodamine B assay relative to control; format: functional; settings: read-out: Activity
[36] = system: SNB-19; assay: Growth inhibition of human SNB-19 cells assessed as growth percentage at 0.1 uM incubated for 48 hrs by sulforhodamine B assay relative to control; format: functional; settings: read-out: Activity
[37] = system: RPMI-8226; assay: Growth inhibition of human RPMI-8226 cells incubated for 48 hrs by sulforhodamine B assay; format: functional

CCCCCCCC(=O)Nc1nc2[nH]c(CN3CCN(Cc4cccc(F)c4)CC3)c(CN3CCN(Cc4cccc(F)c4)CC3)c2c(=O)[nH]1
growth at 100 µM [1]: -73% | GI50 ([2]; 48 h): 1680 nM | TGI ([2]; 48 h): 3150 nM | CC50 ([2]; 48 h, read-out: LC50 (the source's name)): 590 nM and 5900 nM | GI50 ([2]; Homo sapiens, UACC-62, 48 h): 1800 nM | TGI ([2]; Homo sapiens, UACC-62, 48 h): 3420 nM | GI50 [3]: 1480 nM | LC50 [3]: 6850 nM | TGI [3]: 3180 nM | growth at 1 µM [4]: 25% | growth at 1 µM [5]: 61% | inhibition [6]: 54.5% | growth at 0.01 µM [7]: 97% | growth at 0.1 µM [8]: 92% | GI50 ([9]; 48 h): 480 nM | LC50 (concentration killing 50% of cells) ([9]; Homo sapiens, MDA-MB-468): 5310 nM | TGI ([9]; Homo sapiens, MDA-MB-468): 1840 nM | GI50 ([9]; Homo sapiens, MDA-MB-468, 48 h): 477 nM | growth at 100 µM [10]: -77% | growth at 1 µM [11]: 11% | growth at 1 µM [12]: 10% | growth at 100 µM [13]: -40% | growth at 1 µM [14]: -26% | growth at 100 µM [15]: -79% | GI50 [16]: 1300 nM | TGI [16]: 2670 nM | CC50 [16]: 5470 nM | growth at 10 µM [17]: -40% | inhibition of growth at 10 µM [18]: 94.8% | growth at 0.1 µM [19]: 92% | growth at 10 µM [20]: 29% | growth at 0.1 µM [21]: 97% | GI50 [22]: 210 nM | TGI [22]: 550 nM | GI50 ([22]; Homo sapiens, SR): 208 nM | TGI ([22]; Homo sapiens, SR): 548 nM | CC50 ([22]; Homo sapiens, SR): > 100000 nM | growth at 100 µM [23]: -94% | growth at 1 µM [24]: 83% | GI50 ([25]; 48 h): 210 nM | TGI ([25]; 48 h): 410 nM | CC50 ([25]; 48 h): 800 nM | GI50 ([25]; Homo sapiens, OVCAR-8, 48 h): 205 nM | TGI ([25]; Homo sapiens, OVCAR-8, 48 h): 405 nM | CC50 ([25]; Homo sapiens, OVCAR-8, 48 h): 801 nM | growth at 100 µM [26]: -73% | growth at 0.1 µM [27]: 96% | growth at 100 µM [28]: -96% | growth at 0.1 µM [29]: 88% | growth at 0.1 µM [30]: 94% | growth at 100 µM [31]: -75% | growth at 100 µM [32]: -47% | growth at 1 µM [33]: -33% | growth at 10 µM [34]: -65.6% | growth at 0.1 µM [35]: 95% | growth at 0.1 µM [36]: 98% | GI50 ([37]; 48 h): 360 nM | LC50 ([37]; 48 h): 100000 nM and > 1000 nM | GI50 ([37]; Homo sapiens, RPMI-8226, 48 h): 363 nM

Nc1nc2[nH]c(CN3CCN(c4cc(Cl)cc(Cl)c4)CC3)c(CN3CCN(c4cc(Cl)cc(Cl)c4)CC3)c2c(=O)[nH]1
growth at 100 µM [1]: -42% | GI50 ([2]; Homo sapiens, UACC-62, 48 h): 1800 nM | TGI ([2]; Homo sapiens, UACC-62, 48 h): 3420 nM | GI50 [3]: 1910 nM | TGI [3]: 3910 nM | growth at 1 µM [4]: 90% | growth at 1 µM [5]: 84% | inhibition [6]: -8.65% | growth at 0.01 µM [7]: 87% | growth at 0.1 µM [8]: 101% | TGI ([9]; Homo sapiens, MDA-MB-468): 3750 nM | GI50 ([9]; Homo sapiens, MDA-MB-468, 48 h): 1720 nM | growth at 100 µM [10]: -59% | growth at 1 µM [11]: 98% | growth at 1 µM [12]: 88% | growth at 100 µM [13]: -25% | growth at 1 µM [14]: 91% | growth at 100 µM [15]: -38% | GI50 [16]: 1760 nM | TGI [16]: 3890 nM | CC50 [16]: 8610 nM | growth at 10 µM [17]: 23.6% | inhibition of growth at 10 µM [18]: 82.5% | growth at 0.1 µM [19]: 102% | growth at 10 µM [20]: 87% | growth at 0.1 µM [21]: 94% | GI50 ([22]; Homo sapiens, SR): 1460 nM | TGI ([22]; Homo sapiens, SR): 4460 nM | CC50 [22]: > 100000 nM | growth at 100 µM [23]: -25% | growth at 1 µM [24]: 82% | GI50 ([25]; Homo sapiens, OVCAR-8, 48 h): 2050 nM | TGI ([25]; Homo sapiens, OVCAR-8, 48 h): 4480 nM | growth at 100 µM [26]: -54% | growth at 0.1 µM [27]: 96% | growth at 100 µM [28]: -97% | growth at 0.1 µM [29]: 90% | growth at 0.1 µM [30]: 97% | growth at 100 µM [31]: -44% | growth at 100 µM [32]: -84% | growth at 1 µM [33]: 93% | growth at 10 µM [34]: -17.6% | growth at 0.1 µM [35]: 104% | growth at 0.1 µM [36]: 91% | TGI ([37]; Homo sapiens, RPMI-8226): 6920 nM | GI50 ([37]; Homo sapiens, RPMI-8226, 48 h): 2410 nM
